We go through 6 compounds from PubChem BioAssay (NCI).

The structures appear in SMILES notation.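 These data come from cells grown in 96-well plates and exposed to compound for 48 hours at five concentrations. TGI is the concentration that stops growth completely.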

What all share (experiment): inhibition of tumour cell growth, NCI panel, 48 h
For test [1], the system named is 786-0 renal.
In test [2] the test system is OVCAR-4 ovarian.
The subject of test [3] is DMS 273 small cell lung.
Test [4] deals with M19-MEL melanoma.
Test [5] deals with DMS 114 small cell lung.
Test [6] concerns COLO 205 colon.
Test [7] concerns SNB-78 CNS.
The test system of test [8] is OVCAR-5 ovarian.
For test [9], the system named is RXF 393 renal.
The subject of test [10] is DLD-1 colon.
For test [11], the system named is SK-MEL-5 melanoma.
Test [12] concerns XF 498 CNS.
For test [13], the system named is SF-268 CNS.
The test system of test [14] is LXFL 529 NSCLC.
In test [15] the test system is KM20L2 colon.
Test [16] relates to OVCAR-3 ovarian.
In test [17] the test system is MALME-3M melanoma.
Test [18] concerns HOP-18 NSCLC.
Test [19] has as its system DU-145 prostate.

On to `CC1(n2nc(-c3ccccc3)n(-c3ccccc3)c2=O)CSC1`, for which the TGI in test [1], in test [2], in test [3], in test [4], in test [5] and in test [6] was above 100 µM in each case. The TGI in [7], in test [8], in [9], in test [10], in test [11] and in test [12] was above 100 µM each time. Further, the TGI in [13], in test [14] and in [15] was above 100 µM throughout.

With `CN(C)P(=O)(/C(N)=N/Nc1ccc([N+](=O)[O-])cc1)N(C)C`, the TGI in test [1], in test [2], in test [3], in test [16], in [4] and in [17] was above 100 µM in each case. The TGI in test [5], in test [6], in test [7], in test [8], in [10] and in [11] was above 100 µM each time. The TGI in test [12], in test [13], in test [14] and in test [15] was above 100 µM each time.

For the compound `Cc1noc(C)c1CCCOC1COc2ccccc2OCCOCCOc2ccccc2OC1`, the TGI in [1], in test [2], in test [3], in [16], in [4] and in test [17] was above 100 µM each time. Moreover, the TGI in test [5], in test [6], in [7], in [8], in [9] and in test [10] was above 100 µM throughout. Moreover, the TGI in test [11], in test [12], in test [13], in test [18], in [14] and in test [15] was above 100 µM throughout.

On to `C1C2CC3CC1CC(c1nn4c(C56CC7CC(CC(C7)C5)C6)nnc4s1)(C2)C3`, for which the TGI in [1], in test [2], in test [16], in test [19], in test [17] and in test [6] was above 100 µM throughout. For the same compound, the TGI in test [8], in test [9], in [11] and in test [13] was above 100 µM in each case.

Consider `COC(=O)c1ccccc1/C=C1\Cc2c(ccc3c2CCC3)C1=O`, for which the TGI in test [1], in [2], in test [16], in test [19], in [17] and in test [6] was above 100 µM in each case. In addition, the TGI in test [8], in [9], in test [11] and in test [13] was above 100 µM each time.

`CC1=NN(c2ccccc2)C2(C1)C(Cl)C(=O)N2c1nc2ccccc2s1` (centres undefined): the TGI in test [1] is above 100 µM; in test [2], above 100 µM; in test [16], 47.9 µM; in test [19], above 100 µM; in test [17], above 100 µM; in test [6], 80.6 µM. For the same compound, the TGI in test [8] is above 100 µM; in [9] it was 97.7 µM; in test [11], 73.3 µM; in test [13], above 100 µM.
